Source: patent EP4786454A1, “HETEROARYL DERIVATIVE AND USE THEREOF” (priority 2023, dated 2025)

What was measured:
[1] = system: MDR1-MDCK I cell line; experiment: Permeability evaluation, bidirectional transport (P-gp substrate); assay type: in vitro ADME; conditions: 2.00 µM, 90 minutes
Method: (§1) The purpose of this study was to evaluate and study the P-gp substrate of the compounds in MDR1 […] cells.
(§2) Transport assay: The test sample, nadolol, and metoprolol were administered at a concentration of 2.00 µM, and digoxin was administered at a concentration of 10.0 µM. The administration was performed bidirectionally (A-B and B-A directions), with two replicates for each administration concentration. The dosing solution, receiving solution, and transport buffer were pre-incubated in a 37.0 °C water bath for 30 minutes. The cell layer was rinsed twice with transport buffer. The dosing solution and receiving solution were added to the corresponding wells of the cell plate, respectively (75.0 µL to each apical well and 250 µL to each basolateral well, respectively). After the addition of samples, the cell plate was incubated in an incubator at 37.0°C, 5.0% CO2 and saturated humidity for 90 minutes. The initial dosing solution was used as the T0 sample. After 90 minutes of incubation, samples were collected from each well and labeled as A-B receiver, B-A receiver, A-B donor, and B-A donor, respectively. After the sample collection, all samples were mixed with an appropriate volume of transport buffer and stop solution. All samples were vortexed, and then centrifuged at 20.0 °C and 3220 × g for 10 minutes. An appropriate volume of the supernatant was transferred to a sample analysis plate. After sealing the plate, the samples were stored at 2.0 to 8.0 °C if not analyzed immediately. Analysis was performed using LC-MS/MS.
(§3) Cell membrane integrity assay: After the transport assay, the integrity of the MDR1-MDCK II cell layer was assayed by the Lucifer Yellow Rejection Assay. The remaining solution in the apical and basolateral wells was removed. 75.0 µL of transport buffer containing 100 µM Lucifer Yellow was added to the apical well, and 250 µL of transport buffer was added to the basolateral well, respectively. The cell plate was incubated in a cell culture incubator at 37 °C, 5% CO2 and saturated humidity for 30 minutes. Then, 20.0 µL of sample was taken from the apical end and mixed with 60.0 µL of transport buffer, and 80.0 µL of sample was taken from the basolateral end. The relative fluorescence unit (RFU) was measured at 425/528 nm (excitation/emission) using a microplate reader.
(§4) In this study, the sample analysis of the compounds and control compounds of nadolol, metoprolol, and digoxin was performed using LC-MS/MS. The retention time of the analytes and internal standards, chromatogram acquisition, and chromatogram integration were processed using the software Analyst (Sciex, Framingham, MA, USA). […] Semi-quantitative determination was performed using the ratio of the peak area of analyte to the peak area of internal standard.
(§5) The apparent permeability coefficient (Papp, cm/s), efflux ratio (ER), and recovery rate (%Solution Recovery) were calculated using the following formulas. Papp = (VR)/(Area × Time) × ([drug]receiver)/([drug]initial, donor) = (VR)/(Area × Time) × (CR)/(C0) [formula] Efflux Ratio = (Papp (B−A))/(Papp (A−B)) [formula] %Solution Recovery = (CR × VR + CD × VD)/(C0 × VD) × 100 [formula]
(§6) VR is the volume of the receiver solution (0.0750 mL for side A, and 0.250 mL for side B); Area is the surface area of the cell monolayer (0.143 cm^2); Time is the incubation time (5400 s); C0 is the initial peak area ratio of the test compound or the control compound at the donor; VD is the volume of the donor (0.0750 mL for side A, and 0.250 mL for side B); CD and CR are the peak area ratios of the test compound or the control compound at the donor and the receiver, respectively. The transmittance of Lucifer Yellow (%Lucifer Yellow) was calculated using the following formula: %Lucifer Yellow = (VBasolateral × RFUBasolateral)/(VApical × RFUApical + VBasolateral × RFUBasolateral) × 100 [formula]
(§7) RFUApical and RFUBasolateral are the relative fluorescence units of Lucifer Yellow at the apical and basolateral ends, respectively. […]

[2] = system: P-gp (MDR1); experiment: as above; assay type: in vitro ADME; conditions: dog, MDCK-MDR1; efflux ratio Papp (B-A)/Papp (A-B); read-out: HMDR1 ER
Method: as §1, §2, §3, §4, §5, §6, §7

CC(C)(C)CC(=O)Nc1nc2c(F)cc(C#N)cn2c1-c1ccc(OC(F)(F)F)cc1 [Compound 1] was tested, and the “HMDR1 Papp A to B” value [1] was 3.64 10^-6 cm/s, the “HMDR1 Papp B to A” value [1] was 18.3 10^-6 cm/s and the efflux ratio at 90 min, 2 µM [2] was 5.04.

In the case of CC(C)(C)CC(=O)Nc1nc2c(F)cc(C#N)cn2c1C1=CCCC1 [Compound 3], the “HMDR1 Papp A to B” value [1] is reported as 7.52 10^-6 cm/s, the “HMDR1 Papp B to A” value [1] is reported as 31.2 10^-6 cm/s and the efflux ratio [2] is reported as 4.15.

In the case of CC(C)(C)CC(=O)Nc1nc2c(F)cc(C#N)cn2c1C12CC(C1)C2 [Compound 5], the “HMDR1 Papp A to B” value [1] is reported as 12.4 10^-6 cm/s, the “HMDR1 Papp B to A” value [1] is reported as 42.4 10^-6 cm/s and the efflux ratio [2] is reported as 3.41.
